Where a name gives a salt, the structure may show the parent alone. Read-outs that look alike come from different tables or passages of the source.
Key:
Type in all cases: cell-based
[1] = test system: A549 (lung carcinoma); assay: In vitro antiproliferation assay, A549 cells (TABLE 1 6 point assay; TABLE 2)
Method: (§1) Certain compounds were tested against other cell types for their ability to inhibit proliferation in standard antiproliferation assays.

[2] = test system: H1299 (non-small cell lung carcinoma); assay: In vitro antiproliferation assay, H1299 cells (TABLE 1 6 point assay; TABLE 2)
Method: as §1

[3] = test system: DU145 (prostate carcinoma); assay: In vitro antiproliferation assay, DU145 cells; details: Homo sapiens, DU-145
Method: (§2) Cis racemic Compound 15, (1S,2R) enantiomeric Compound 15a and […] enantiomeric Compound 15b were also tested against DU145 (prostate carcinoma), HCT116 (colorectal carcinoma) and MiaPaCa-2 (pancreatic carcinoma) cell lines.
as §1

[4] = test system: MiaPaCa-2 (pancreatic carcinoma); assay: In vitro antiproliferation assay, MiaPaCa-2 cells; details: Homo sapiens, MIA PaCa-2
Method: as §2, §1

[5] = test system: HCT116 (colorectal carcinoma); assay: In vitro antiproliferation assay, HCT116 cells; details: Homo sapiens, HCT-116; HCT116 (colorectal carcinoma) cell line
Method: as §2

[6] = test system: H7299; assay: In vitro antiproliferation assay, H7299 cells
Method: as §1

[7] = test system: ASPC-1 (pancreatic adenocarcinoma); assay: In vitro antiproliferation assay, ASPC-1 cells; details: Homo sapiens, ASPC1
Method: as §1

[8] = test system: COLO 205 (colorectal adenocarcinoma); assay: In vitro antiproliferation assay, COLO 205 cells; details: Homo sapiens, COLO 205; Colo205
Method: as §1

[9] = test system: HELA (cervical adenocarcinoma); assay: In vitro antiproliferation assay, HELA cells; details: Homo sapiens, HeLa
Method: as §1

[10] = test system: HL160 (promyeloblast promyelocytic leukemia); assay: In vitro antiproliferation assay, HL160 cells
Method: as §1

[11] = test system: K562 (bone marrow chronic myelogenous leukemia); assay: In vitro antiproliferation assay, K562 cells; details: Homo sapiens
Method: as §1

[12] = test system: L1210 (mouse lymphocytic leukemia); assay: In vitro antiproliferation assay, L1210 cells; details: Mus musculus
Method: as §1

[13] = test system: MOLT3 (T lymphoblast acute lymphoblastic leukemia); assay: In vitro antiproliferation assay, MOLT3 cells; details: Homo sapiens, MOLT-3
Method: as §1

[14] = test system: MOLT4 (T lymphoblast acute lymphoblastic leukemia); assay: In vitro antiproliferation assay, MOLT4 cells; details: Homo sapiens, MOLT-4
Method: as §1

[15] = test system: SW620 (colorectal adenocarcinoma); assay: In vitro antiproliferation assay, SW620 cells; details: Homo sapiens, SW-620
Method: as §1

[16] = test system: THP-1 (monocyte acute monocytic leukemia); assay: In vitro antiproliferation assay, THP-1 cells; details: Homo sapiens
Method: as §1

[17] = test system: U2OS (bone osteosarcoma); assay: In vitro antiproliferation assay, U2OS cells; details: Homo sapiens, U2OS; U20S
Method: as §1

[18] = test system: U937 (histiocytic lymphoma); assay: In vitro antiproliferation assay, U937 cells; details: Homo sapiens, U-937
Method: as §1

[19] = test system: PC3 (prostate adenocarcinoma); assay: In vitro antiproliferation assay, PC3 cells; details: Homo sapiens, PC-3
Method: as §1

[20] = biological target: T1, Aurora kinase-B (Homo sapiens, UniProt Q96GD4); assay: Functional cellular assay of Aurora kinase-B: phosphorylation of histone H3 in A549 cells
T1 construct: endogenous in cells; host or cells: A549 cells
T1 sequence (Q96GD4 whole entry): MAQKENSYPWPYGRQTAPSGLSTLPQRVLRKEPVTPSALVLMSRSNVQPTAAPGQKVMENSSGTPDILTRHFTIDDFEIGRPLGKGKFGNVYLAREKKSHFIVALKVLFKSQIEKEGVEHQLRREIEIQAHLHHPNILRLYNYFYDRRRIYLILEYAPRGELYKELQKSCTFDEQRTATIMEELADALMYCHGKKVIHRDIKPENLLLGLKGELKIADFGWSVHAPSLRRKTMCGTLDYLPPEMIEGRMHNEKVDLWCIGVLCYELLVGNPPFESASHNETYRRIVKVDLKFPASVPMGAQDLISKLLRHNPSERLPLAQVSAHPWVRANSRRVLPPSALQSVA
Method: Enantiomers E1 and E2 (Compounds 60a and 60b, respectively) were tested for their ability to inhibit Aurora kinase-B in a functional cellular assay involving phosphorylation of its substrate, histone H3. For the assay, A549 cells were seeded into the wells of a microtiter tray (5000 cells/well in 100 μl F12K media) late in the afternoon on Day 1. The cells were grown overnight (37° C., 5% CO2) On Day 2, 50 μl nocodazole (1 μM in media) was added to each well, giving a final concentration of 333 nM. Cells were grown for an additional 18 hrs under the same conditions.
On Day 3, 50 μl aliguots of varying concentrations of test compound were added to the wells Test compounds were prepared by 2-fold serial dilution of a […] stock (in DMSO). The diluted compounds in DMSO were then further diluted 1:50 with media to yield a final solution containing 4× test compound, 98% media, 2% DMSO. After incubation, the media/test compound was washed and the cells fixed with 2% paraformaldehyde (in Dulbecco's phosphate buffered saline “DPBS”; 25 μl per well; […] incubation). […] The cells were then stained with a secondary antibody labeled with a fluorescent dye (secondary antibody donkey anti-mouse AlexFluor 488 (Invitrogen Molecular Probes; 1:2000) and DAPI (1:15,000 of 1 mg/ml stock) for 1 hr at room temperature, washed three times with DPBS (200 μl/well) and stored under DPBS (100 μl/well) at 4° C. until ready for analysis.
A Zeiss Axiovert S100 inverted fluorescent microscope with a Plan-NEOFLUAR 10× objective, a Hamamatsu Lightningcure 200 Mercury-Xenon light source and an Omega Optical XF57 quad filter was used for all data collection. […] Images were captured and analyzed in 12-bit format using segmentation and morphological routines contained in the Image Pro software package. Identified nuclei were counted and pixel data for each cell along with experimental conditions was stored in a database using MySQL 4.0.14. […]
For phospho-histone H3 analysis the data is converted to Facs files and analysed using FlowJo. […]

[21] = test system: a variety of tumor cell types; assay: In vitro antiproliferation assays against a variety of tumor cell types (stereoisomer comparison)
Method: Moreover, it has been discovered that the enantiomer corresponding to the (1R,2R,3S,4S) diastereomer of structural formula (IVa) is largely responsible for the potency of the exo-exo cis racemate.
as §1

[22] = Homo sapiens, A549, 6 point assay, A549 cells, read-out: IC50, A549 cells
[23] = Homo sapiens, NCI-H1299, 6 point assay, H1299 cells, read-out: IC50, H1299 cells
[24] = DU145 (prostate carcinoma) cell line, read-out: IC50
[25] = MiaPaCa-2 (pancreatic carcinoma) cell line, read-out: IC50
[26] = 6 point assay, A549 cells, read-out: IC50, A549 cells
[27] = 6 point assay, H1299 cells, read-out: IC50, H1299 cells
[28] = Miapaca2, read-out: In Vitro IC50
[29] = Homo sapiens, A549, A549, read-out: In Vitro IC50
[30] = Homo sapiens, NCI-H1299, H1299, read-out: In Vitro IC50

| IC50 [1, 22] [nM] | IC50 [2, 23] [nM] | IC50 [4, 25] [nM] | IC50 [5] [nM] | IC50 [8] [nM] | IC50 [10] [nM] | IC50 [11] [nM] | IC50 [12] [nM] | IC50 [4, 28] [nM] | IC50 [13] [nM] | IC50 [14] [nM] | IC50 [15] [nM] | IC50 [16] [nM] | IC50 [18] [nM] | SMILES | IC50 [1, 26] [nM] | IC50 ([1]; A549, read-out: In Vitro IC50) [nM] | IC50 [2, 27] [nM] | IC50 [6] [nM] | also measured |
| --- | --- | --- | --- | --- | --- | --- | --- | --- | --- | --- | --- | --- | --- | --- | --- | --- | --- | --- | --- |
| 100 to 1000 | 100 to 1000 | < 1000 | < 1000 |  |  |  |  |  |  |  |  |  |  | Cc1cc(Nc2ncc(F)c(NC3CCCC3C(N)=O)n2)ccc1N1CCN(C)CC1 (racemic) [Compound 15, Racemic-cis-N4-(2-Aminocarbonylcyclopent-1-yl)-5-fluoro-N2-[4-(4-methylpiperazin-1-yl)-3-methylphenyl]-2,4-pyrimidinediamine] |  |  |  |  | IC50 [3, 24]: < 1000 nM |
|  |  |  |  |  |  |  |  |  |  |  |  |  |  | Cc1cc(Nc2ncc(F)c(NC3C4C=CC(C4)C3C(N)=O)n2)ccc1N1CCN(C)CC1 (racemic) [Compound 60r2, Racemic-(2-endo,3-endo)-N4-(3-aminocarbonylbicyclo[2.2.1]hept-5-en-2-yl)-5-fluoro-N2-[3-methyl-4-(4-methylpiperazin-1-yl)phenyl]-2,4-pyrimidinediamine] | 100 to 1000 | ≤ 1000 | 100 to 1000 | ≤ 1000 |  |
|  |  |  |  |  |  |  |  |  |  |  |  |  |  | Cc1cc(Nc2ncc(F)c(NC3C4C=CC(C4)C3C(N)=O)n2)ccc1N1CCN(C)CC1 (racemic) [Compound 228, Racemic N4-(3-Aminocarbonylbicyclo[2.2.1]hept-5-en-2-yl)-5-fluoro-N2-[3-methyl-4-(4-methylpiperazin-1-yl)phenyl]-2,4-pyrimidinediamine Hydrogen Chloride Salt] | ≤ 100 | ≤ 1000 | ≤ 100 | ≤ 1000 | IC50 ([2]; H1299, read-out: In Vitro IC50): ≤ 1000 nM |
| 100 to 1000 | 100 to 1000 | < 1000 | < 1000 |  |  |  |  |  |  |  |  |  |  | Cc1cc(Nc2ncc(F)c(N[C@H]3CCC[C@H]3C(N)=O)n2)ccc1N1CCN(C)CC1 (stereo in doubt) [Compound 15a, (1S,2R)—N4-(2-Aminocarbonylcyclopent-1-yl)-5-fluoro-N2-[4-(4-methylpiperazin-1-yl)-3-methylphenyl]-2,4-pyrimidinediamine] |  |  |  |  |  |
| 1000 to 10000 | 1000 to 10000 | < 5000 | < 5000 |  |  |  |  |  |  |  |  |  |  | Cc1cc(Nc2ncc(F)c(N[C@@H]3CCC[C@@H]3C(N)=O)n2)ccc1N1CCN(C)CC1 (stereo in doubt) [Compound 15b, (1R,2S)—N4-(2-Aminocarbonylcyclopent-1-yl)-5-fluoro-N2-[4-(4-methylpiperazin-1-yl)-3-methylphenyl]-2,4-pyrimidinediamine] |  |  |  |  | IC50 [3, 24]: < 5000 nM |
| 1000 to 10000 | 1000 to 10000 |  |  | > 1000 | > 1000 | > 1000 | > 1000 | > 1000 | > 1000 | > 1000 | > 1000 | ≤ 1000 | > 1000 | Cc1cc(Nc2ncc(F)c(NC3C(C(N)=O)[C@H]4C=C[C@@H]3C4)n2)ccc1N1CCN(C)CC1 (stereo in doubt) [Compound 60b, (1S,2R,3S,4R)—N4-(3-Aminocarbonylbicyclo[2.2.1]hept-5-en-2-yl)-5-fluoro-N2-[3-methyl-4-(4-methylpiperazin-1-yl)phenyl]-2,4-pyrimidinediamine] |  |  |  | > 1000 | IC50 [1, 29]: > 1000 nM; IC50 [2, 30]: > 1000 nM; IC50 ([3]; DU145, read-out: In Vitro IC50): ≤ 1000 nM; IC50 [9]: > 1000 nM; IC50 [19]: > 1000 nM; IC50 [17]: ≤ 1000 nM; IC50 ([20]; A549 cells, phospho-histone H3, read-out: IC50 of Aurora kinase-B inhibition): 2490 nM |
|  |  |  |  |  |  |  |  |  |  |  |  |  |  | Cc1cc(Nc2ncc(F)c(NC3C4C=CC(C4)C3C(N)=O)n2)ccc1N1CCN(C)CC1 [(1R,2R,3S,4S) diastereomer, N4-(3-aminocarbonylbicyclo[2.2.1]hept-5-en-2-yl)-5-fluoro-N2-[3-methyl-4-(4-methylpiperazin-1-yl)phenyl]-2,4-pyrimidinediamine] |  |  |  |  | Result in cell-based inhibition assays against Aurora kinase B compared to the (1S,2S,3R,4R) diastereomer ([20]; in words): similarly superior results; Potency relative to the endo-endo racemate ([21]; (1R,2R,3S,4S) diastereomer, more potent): 20-50 times; Potency relative to the (1S,2S,3R,4R) diastereomer ([21]; more potent): approximately 1000 fold; IC50s when tested as isolated stereoisomers ([21]; range in words, same cell lines): nanomolar range |
|  |  |  |  | ≤ 1000 | ≤ 1000 | > 1000 | ≤ 1000 | ≤ 1000 | ≤ 1000 | ≤ 1000 | ≤ 1000 | ≤ 1000 | ≤ 1000 | Cc1cc(Nc2ncc(F)c(N[C@@H]3CCC[C@@H]3C(N)=O)n2)ccc1N1CCN(C)CC1 [compound 222, (1R,2S)-N4-(2-Aminocarbonylcyclopent-1-yl)-5-fluoro-N2-[3-methyl-4-(4-methylpiperazin-1-yl)phenyl]-2,4-pyrimidinediamine Bis Hydrogen Chloride Salt] | 100 to 1000 |  | 100 to 1000 |  | IC50 [1, 29]: ≤ 1000 nM; IC50 [2, 30]: ≤ 1000 nM |

| SMILES | IC50 [1, 22] [nM] | IC50 [2, 23] [nM] | IC50 [4, 25] [nM] | IC50 [5] [nM] | IC50 [8] [nM] | IC50 [10] [nM] | IC50 [11] [nM] | IC50 [12] [nM] | IC50 [4, 28] [nM] | IC50 [13] [nM] | IC50 [14] [nM] | IC50 [15] [nM] | IC50 [16] [nM] | IC50 [18] [nM] | IC50 [1, 26] [nM] | IC50 ([1]; A549, read-out: In Vitro IC50) [nM] | IC50 [2, 27] [nM] | IC50 [6] [nM] | also measured |
| --- | --- | --- | --- | --- | --- | --- | --- | --- | --- | --- | --- | --- | --- | --- | --- | --- | --- | --- | --- |
| Cc1cc(Nc2ncc(F)c(NC3C4C=CC(C4)C3C(N)=O)n2)ccc1N1CCN(C)CC1 (racemic) [compound 221, Racemic-(2-exo, 3-exo)-N4-(3-aminocarbonylbicyclo[2.2.1]hept-5-en-2-yl)-5-fluoro-N2-[3-methyl-4-(4-methylpiparazin-1-yl)phenyl]-2,4-pyrimidinediamine] | ≤ 100 | ≤ 100 |  |  | ≤ 10 | ≤ 10 | ≤ 1000 | ≤ 1000 | ≤ 10 | ≤ 10 | ≤ 10 | ≤ 20 | ≤ 20 | ≤ 10 |  | ≤ 10 |  |  | IC50 ([2]; H1299, read-out: In Vitro IC50): ≤ 20 nM; IC50 [7]: ≤ 20 nM; IC50 ([3]; DU145, read-out: In Vitro IC50): ≤ 10 nM; IC50 [9]: ≤ 10 nM; IC50 [17]: ≤ 20 nM |
